From ChEMBL document CHEMBL4390652, “Design, biological evaluation and X-ray crystallography of nanomolar multifunctional ligands targeting simultaneously acetylcholinesterase and glycogen synthase kinase-3” (Eur J Med Chem, 2019) come the findings set out here.

Series [1] concerns the target AP2-associated protein kinase 1 (Homo sapiens) (UniProt Q2M2I8). The series is described as follows: Binding affinity to human wild-type AAK1 (G25 to L333 residues) expressed in bacterial expression system assessed as residual binding level at 10 uM by Kinomescan method relative to control.
Series [2] addresses Serine/threonine-protein kinase NIM1 (Homo sapiens) (UniProt Q8IY84). In words: Binding affinity to wild-type human partial length NIM1 (Q44 to N355 residues) expressed in mammalian expression system assessed as residual binding level at 10 uM by Kinomescan method relative to control.
The target of series [3] is Interleukin-1 receptor-associated kinase 3 (Homo sapiens) (UniProt Q9Y616). The series is described as follows: Binding affinity to wild-type human partial length IRAK3 (V147 to E596 residues) expressed in bacterial expression system assessed as residual binding level at 10 uM by Kinomescan method relative to control.
Series [4] has as its target Calcium/calmodulin-dependent protein kinase kinase 1 (Homo sapiens) (UniProt Q8N5S9). The series is described as follows: Binding affinity to wild-type human partial length CAMKK1 (R65 to E414 residues) expressed in bacterial expression system assessed as residual binding level at 10 uM by Kinomescan method relative to control.
For series [5], the target named is Tyrosine-protein kinase Mer (Homo sapiens) (UniProt Q12866). In words: Binding affinity to wild-type human partial length MERTK (R557 to L884 residues) expressed in bacterial expression system assessed as residual binding level at 10 uM by Kinomescan method relative to control.
Series [6] relates to eIF-2-alpha kinase GCN2 (Homo sapiens), Q9P2K8 [S808G]. In words: Binding affinity to wild-type human partial length GCN2 kinase domain 2 (R585 to T1018 residues) S808G mutant expressed in bacterial expression system assessed as residual binding level at 10 uM by Kinomescan method relative to control.
For series [7], the target named is Serine/threonine-protein kinase OSR1 (Homo sapiens) (UniProt O95747). The series is described as follows: Binding affinity to wild-type human full length OSR1 (M1 to S527 residues) expressed in mammalian expression system assessed as residual binding level at 10 uM by Kinomescan method relative to control.
In series [8] the test system is Receptor-type tyrosine-protein kinase FLT3 (Homo sapiens), P36888 [D835H]. The series is described as follows: Binding affinity to human partial length FLT3 D835H mutant (V592 to Y969 residues) expressed in bacterial expression system assessed as residual binding level at 10 uM by Kinomescan method relative to control.
The target in series [9] is Fibroblast growth factor receptor 2 (Homo sapiens) (UniProt P21802). The series is described as follows: Binding affinity to wild-type human partial length FGFR2 (D457 to E769 residues) expressed in bacterial expression system assessed as residual binding level at 10 uM by Kinomescan method relative to control.
For series [10], the system named is Epidermal growth factor receptor (Homo sapiens), P00533 [UNDEFINED MUTATION]. The series is described as follows: Binding affinity to human partial length EGFR S752-I759del mutant expressed in bacterial expression system assessed as residual binding level at 10 uM by Kinomescan method relative to control.
The target in series [11] is Mitogen-activated protein kinase 3 (Homo sapiens) (UniProt P27361). In words: Binding affinity to wild-type human full length ERK1 (M1 to P379 residues) expressed in bacterial expression system assessed as residual binding level at 10 uM by Kinomescan method relative to control.
Chain of Mitogen-activated protein kinase 3 (Homo sapiens) (P27361 whole entry, the tested form may be a part): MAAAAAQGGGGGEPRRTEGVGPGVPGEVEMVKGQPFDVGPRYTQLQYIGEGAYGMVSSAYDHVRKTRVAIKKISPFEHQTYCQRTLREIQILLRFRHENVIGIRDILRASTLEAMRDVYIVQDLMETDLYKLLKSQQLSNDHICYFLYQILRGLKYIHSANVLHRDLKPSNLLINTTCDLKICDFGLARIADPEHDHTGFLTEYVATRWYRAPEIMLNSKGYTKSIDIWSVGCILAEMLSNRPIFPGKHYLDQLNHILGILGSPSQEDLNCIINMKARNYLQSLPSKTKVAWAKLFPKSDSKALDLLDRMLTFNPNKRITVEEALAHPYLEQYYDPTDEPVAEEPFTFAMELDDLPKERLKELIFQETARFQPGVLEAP
Series [12] concerns the target Tyrosine-protein kinase Yes (Homo sapiens) (UniProt P07947). In words: Binding affinity to wild-type human partial length YES (T257 to L543 residues) expressed in bacterial expression system assessed as residual binding level at 10 uM by Kinomescan method relative to control.
Series [13] has as its target Mitogen-activated protein kinase 11 (Homo sapiens) (UniProt Q15759). In words: Binding affinity to wild-type human full length p38-beta (M1 to Q364 residues) expressed in bacterial expression system assessed as residual binding level at 10 uM by Kinomescan method relative to control.
Series [14] deals with Rhodopsin kinase GRK1 (Homo sapiens) (UniProt Q15835). The series is described as follows: Binding affinity to wild-type human full length GRK1 (M1 to S563 residues) expressed in mammalian expression system assessed as residual binding level at 10 uM by Kinomescan method relative to control.
Series [15] addresses Serine/threonine-protein kinase TNNI3K (Homo sapiens) (UniProt Q59H18). The series is described as follows: Binding affinity to wild-type human full length TNNI3K (M1 to S835 residues) expressed in bacterial expression system assessed as residual binding level at 10 uM by Kinomescan method relative to control.
In series [16] the test system is Epidermal growth factor receptor (Homo sapiens), P00533 [G719S]. In words: Binding affinity to human partial length EGFR G719S mutant (R669 to V1011 residues) expressed in bacterial expression system assessed as residual binding level at 10 uM by Kinomescan method relative to control.
For series [17], the target named is Misshapen-like kinase 1 (Homo sapiens) (UniProt Q8N4C8). The series is described as follows: Binding affinity to wild-type human partial length MINK (M1 to K312 residues) expressed in mammalian expression system assessed as residual binding level at 10 uM by Kinomescan method relative to control.
Series [18] deals with Epidermal growth factor receptor (Homo sapiens), P00533 [L858R,T790M]. In words: Binding affinity to human partial length EGFR L858R/T790M double mutant (R669 to V1011 residues) expressed in mammalian expression system assessed as residual binding level at 10 uM by Kinomescan method relative to control.
Series [19] in a line: Cytotoxicity against human SH-SY5Y cells assessed as reduction in cell viability at 100 uM incubated for 24 hrs by MTT assay relative to untreated cells. In kind it is cell-based. The conditions noted are these: read-out: INH.
The target of series [20] is Leukocyte tyrosine kinase receptor (Homo sapiens) (UniProt P29376). The series is described as follows: Binding affinity to wild-type human partial length LTK (P422 to S744 residues) expressed in bacterial expression system assessed as residual binding level at 10 uM by Kinomescan method relative to control.
Chain of Leukocyte tyrosine kinase receptor (Homo sapiens) (P29376 whole entry, the tested form may be a part): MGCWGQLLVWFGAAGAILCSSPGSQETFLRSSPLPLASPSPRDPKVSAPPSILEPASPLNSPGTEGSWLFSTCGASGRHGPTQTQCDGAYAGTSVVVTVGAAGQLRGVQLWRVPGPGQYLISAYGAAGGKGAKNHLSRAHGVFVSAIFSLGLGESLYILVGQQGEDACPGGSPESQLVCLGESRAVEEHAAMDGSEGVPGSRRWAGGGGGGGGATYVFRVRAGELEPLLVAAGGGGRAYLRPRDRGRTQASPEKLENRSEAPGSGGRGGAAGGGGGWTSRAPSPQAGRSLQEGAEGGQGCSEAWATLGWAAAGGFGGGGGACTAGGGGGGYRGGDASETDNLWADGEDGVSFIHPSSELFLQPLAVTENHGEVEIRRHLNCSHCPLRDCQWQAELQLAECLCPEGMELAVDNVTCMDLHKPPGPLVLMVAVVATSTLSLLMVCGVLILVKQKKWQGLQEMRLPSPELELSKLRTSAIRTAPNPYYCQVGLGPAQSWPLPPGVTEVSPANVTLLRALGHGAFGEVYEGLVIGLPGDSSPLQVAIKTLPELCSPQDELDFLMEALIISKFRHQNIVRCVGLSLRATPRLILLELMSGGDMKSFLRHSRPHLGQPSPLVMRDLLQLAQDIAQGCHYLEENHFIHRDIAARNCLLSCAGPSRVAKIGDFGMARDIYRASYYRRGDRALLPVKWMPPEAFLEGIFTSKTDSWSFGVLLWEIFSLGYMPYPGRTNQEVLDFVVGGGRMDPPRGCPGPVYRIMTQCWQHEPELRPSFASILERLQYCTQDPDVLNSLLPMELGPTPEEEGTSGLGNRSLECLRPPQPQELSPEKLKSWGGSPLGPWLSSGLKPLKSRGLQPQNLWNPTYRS
Series [21] concerns Tyrosine-protein kinase ABL1 (Homo sapiens), P00519 [F317L]. The series is described as follows: Binding affinity to human phosphorylated ABL1 F317L mutant (S229 to K512 residues) expressed in mammalian expression system assessed as residual binding level at 10 uM by Kinomescan method relative to control.
Series [22] addresses Non-receptor tyrosine-protein kinase TYK2 (Homo sapiens) (UniProt P29597). In words: Binding affinity to wild-type human partial length TYK2 JH2 pseudokinase domain (G556 to D888 residues) expressed in mammalian expression system assessed as residual binding level at 10 uM by Kinomescan method relative to control.
The target in series [23] is Eukaryotic translation initiation factor 2-alpha kinase 1 (Homo sapiens) (UniProt Q9BQI3). The series is described as follows: Binding affinity to wild-type human partial length EIF2AK1 (Q147 to E603 residues) expressed in mammalian expression system assessed as residual binding level at 10 uM by Kinomescan method relative to control.
Chain of Eukaryotic translation initiation factor 2-alpha kinase 1 (Homo sapiens) (Q9BQI3 whole entry, the tested form may be a part): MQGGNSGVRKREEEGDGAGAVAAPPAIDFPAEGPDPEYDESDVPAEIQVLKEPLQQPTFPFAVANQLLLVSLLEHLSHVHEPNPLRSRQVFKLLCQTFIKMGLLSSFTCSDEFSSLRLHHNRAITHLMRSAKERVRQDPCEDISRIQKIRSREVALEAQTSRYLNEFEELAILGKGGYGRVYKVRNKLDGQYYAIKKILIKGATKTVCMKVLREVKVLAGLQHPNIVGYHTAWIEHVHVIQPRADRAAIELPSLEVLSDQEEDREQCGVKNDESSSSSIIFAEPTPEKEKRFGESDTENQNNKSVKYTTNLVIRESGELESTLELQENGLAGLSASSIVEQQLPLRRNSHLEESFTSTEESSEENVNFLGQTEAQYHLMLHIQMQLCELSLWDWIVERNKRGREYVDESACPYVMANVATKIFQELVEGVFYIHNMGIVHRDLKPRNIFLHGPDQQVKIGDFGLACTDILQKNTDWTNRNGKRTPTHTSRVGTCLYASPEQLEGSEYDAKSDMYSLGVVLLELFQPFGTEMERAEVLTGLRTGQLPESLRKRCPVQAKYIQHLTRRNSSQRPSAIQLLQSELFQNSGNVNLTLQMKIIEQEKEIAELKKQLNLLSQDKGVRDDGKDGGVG
The subject of series [24] is Tyrosine-protein kinase ABL1 (Homo sapiens), P00519 [F317I]. In words: Binding affinity to human phosphorylated ABL1 F317I mutant (S229 to K512 residues) expressed in mammalian expression system assessed as residual binding level at 10 uM by Kinomescan method relative to control.

Chain of Tyrosine-protein kinase Yes (Homo sapiens) (P07947 2-543 limits assumed): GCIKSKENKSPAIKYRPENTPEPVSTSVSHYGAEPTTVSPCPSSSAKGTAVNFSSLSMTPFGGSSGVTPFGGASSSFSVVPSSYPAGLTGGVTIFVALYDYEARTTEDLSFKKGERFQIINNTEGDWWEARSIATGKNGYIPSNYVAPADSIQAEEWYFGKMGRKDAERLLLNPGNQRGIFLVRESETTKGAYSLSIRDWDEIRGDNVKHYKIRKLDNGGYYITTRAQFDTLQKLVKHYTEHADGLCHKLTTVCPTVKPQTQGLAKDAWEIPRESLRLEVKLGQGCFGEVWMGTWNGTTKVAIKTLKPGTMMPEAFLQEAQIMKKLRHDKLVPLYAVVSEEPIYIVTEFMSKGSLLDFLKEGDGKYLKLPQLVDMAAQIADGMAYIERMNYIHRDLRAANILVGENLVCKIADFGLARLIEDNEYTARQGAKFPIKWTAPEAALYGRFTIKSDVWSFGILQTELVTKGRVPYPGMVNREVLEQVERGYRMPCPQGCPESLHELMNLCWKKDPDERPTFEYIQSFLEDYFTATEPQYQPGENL
Chain of Serine/threonine-protein kinase TNNI3K (Homo sapiens) (Q59H18 whole entry, the tested form may be a part): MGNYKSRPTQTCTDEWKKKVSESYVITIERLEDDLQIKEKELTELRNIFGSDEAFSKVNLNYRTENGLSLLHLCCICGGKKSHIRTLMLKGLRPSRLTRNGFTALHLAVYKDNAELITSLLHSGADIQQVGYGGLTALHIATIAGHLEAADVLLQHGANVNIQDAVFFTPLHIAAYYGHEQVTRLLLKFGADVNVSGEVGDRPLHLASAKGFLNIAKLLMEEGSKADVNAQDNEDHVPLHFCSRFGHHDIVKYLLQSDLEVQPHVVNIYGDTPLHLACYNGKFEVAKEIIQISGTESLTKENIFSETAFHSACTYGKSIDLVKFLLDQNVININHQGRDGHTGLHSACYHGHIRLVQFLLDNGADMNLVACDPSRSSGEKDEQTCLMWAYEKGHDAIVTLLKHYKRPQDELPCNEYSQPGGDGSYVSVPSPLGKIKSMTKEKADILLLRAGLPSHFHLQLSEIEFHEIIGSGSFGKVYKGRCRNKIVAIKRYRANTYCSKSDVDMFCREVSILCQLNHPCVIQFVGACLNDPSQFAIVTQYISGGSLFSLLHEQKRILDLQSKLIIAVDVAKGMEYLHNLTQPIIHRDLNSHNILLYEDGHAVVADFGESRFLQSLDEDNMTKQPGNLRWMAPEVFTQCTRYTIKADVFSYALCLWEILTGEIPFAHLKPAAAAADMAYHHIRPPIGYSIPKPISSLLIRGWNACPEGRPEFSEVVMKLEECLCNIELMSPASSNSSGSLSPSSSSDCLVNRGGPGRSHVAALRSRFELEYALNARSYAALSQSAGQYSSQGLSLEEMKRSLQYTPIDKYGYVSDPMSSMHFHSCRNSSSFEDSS
Chain of Calcium/calmodulin-dependent protein kinase kinase 1 (Homo sapiens) (Q8N5S9 whole entry, looked up, the tested form may be a part): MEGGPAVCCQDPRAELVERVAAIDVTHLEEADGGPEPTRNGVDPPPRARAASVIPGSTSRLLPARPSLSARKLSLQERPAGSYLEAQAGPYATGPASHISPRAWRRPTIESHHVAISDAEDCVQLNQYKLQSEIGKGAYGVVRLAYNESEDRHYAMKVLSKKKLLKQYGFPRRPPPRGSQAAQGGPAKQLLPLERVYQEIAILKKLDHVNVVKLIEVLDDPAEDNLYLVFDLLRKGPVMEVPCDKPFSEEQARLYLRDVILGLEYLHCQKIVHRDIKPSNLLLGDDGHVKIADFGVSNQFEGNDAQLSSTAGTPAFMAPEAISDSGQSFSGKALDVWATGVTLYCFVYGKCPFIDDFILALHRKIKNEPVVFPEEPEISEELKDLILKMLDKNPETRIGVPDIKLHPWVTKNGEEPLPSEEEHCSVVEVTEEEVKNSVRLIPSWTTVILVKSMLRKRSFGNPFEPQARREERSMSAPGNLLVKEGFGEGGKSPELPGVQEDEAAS
Chain of AP2-associated protein kinase 1 (Homo sapiens) (Q2M2I8 whole entry, looked up, the tested form may be a part): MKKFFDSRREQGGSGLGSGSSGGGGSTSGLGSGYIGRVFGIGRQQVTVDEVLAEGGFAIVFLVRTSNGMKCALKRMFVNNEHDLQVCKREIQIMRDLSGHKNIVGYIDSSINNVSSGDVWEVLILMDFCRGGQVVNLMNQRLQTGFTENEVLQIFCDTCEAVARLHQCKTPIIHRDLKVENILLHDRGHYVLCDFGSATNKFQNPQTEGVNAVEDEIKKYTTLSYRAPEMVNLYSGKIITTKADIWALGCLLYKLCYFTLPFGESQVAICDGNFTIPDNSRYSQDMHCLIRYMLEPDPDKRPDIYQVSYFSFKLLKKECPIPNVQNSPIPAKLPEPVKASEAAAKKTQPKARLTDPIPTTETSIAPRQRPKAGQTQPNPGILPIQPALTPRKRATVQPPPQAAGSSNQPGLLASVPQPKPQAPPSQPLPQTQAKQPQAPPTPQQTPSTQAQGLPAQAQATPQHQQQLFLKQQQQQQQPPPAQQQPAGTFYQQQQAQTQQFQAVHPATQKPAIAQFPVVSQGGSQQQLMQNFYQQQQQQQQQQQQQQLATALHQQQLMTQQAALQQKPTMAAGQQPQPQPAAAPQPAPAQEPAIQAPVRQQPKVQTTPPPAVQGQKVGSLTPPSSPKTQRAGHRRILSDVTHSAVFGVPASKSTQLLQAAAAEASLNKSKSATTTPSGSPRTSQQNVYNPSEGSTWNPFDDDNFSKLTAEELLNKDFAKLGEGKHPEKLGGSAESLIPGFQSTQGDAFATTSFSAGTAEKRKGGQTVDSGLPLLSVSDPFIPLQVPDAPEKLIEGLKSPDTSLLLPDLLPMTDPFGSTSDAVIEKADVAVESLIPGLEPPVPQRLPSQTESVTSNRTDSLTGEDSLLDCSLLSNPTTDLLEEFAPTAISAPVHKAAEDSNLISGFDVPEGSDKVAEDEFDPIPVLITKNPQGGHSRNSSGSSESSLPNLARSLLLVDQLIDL

Take `O=C(Nc1cc(-c2cn(CCNc3c4c(nc5ccccc35)CCCC4)nn2)ccn1)Nc1cccc2c1C1CCCCN1C2=O` (racemic): the Activity in series [1] amounted to 13%; in series [2] it was 83%; in series [3], 16%; in [4], 23%; in [5] it was 12%; in series [6], 75%. For the same molecule, the Activity turned out to be 100% in series [7]; 3.4% in series [8]; 21% in series [9]; 80% in series [10]; 57% in [11]; 76% in series [12]. The Activity in series [13] turned out to be 74%; in series [14], 40%; in series [15], 100%; in [16] it was 94%; in series [17], 28%; in [18] it was 87%. The Activity worked out at 100% in series [20]; 20% in [21]; 19% in series [22]; 100% in [23]; 47% in [24]. The cytotoxicity at 24 h, 100 µM in series [19] came to 50%.
